Laboratory results: US20170367996A1, “Use Of Xanthophyll Carotenoids To Improve Visual Performance And Neural Efficiency” (University of Georgia Research Foundation, Inc., priority 2011, published 2017)

Experiments:
Type in all cases: in vivo, human
[1] = tested on: college baseball players; assay: Macular pigment optical density (MPOD) by customized heterochromatic flicker photometry, zeaxanthin supplementation study; settings: for MPOD (Example 2, preliminary data): 20 mg/d supplementation ongoing
Description: (§1) Subjects: Seven college baseball players (M=20.3±0.58 years), supplemented with 20 mg/Z/day for 3-months, participated in this study. The visual function parameters MPOD, disability glare, photostress recovery time, and contrast enhancement were determined. The neural efficiency parameters Fixed Reaction Time (FRT); Variable Reaction Time (VRT); and Coincidence Anticipation Timing (CAT) were determined.
• Customized HFP [3]—Macular Metrics Corp., Providence, R.I.,

[2] = tested on: college baseball players; assay: Photostress recovery time (PR); settings: 20 mg/Z/day for 3-months; supplemented subjects
Description: as §1
(§2) Stimuli presented in three-channel Maxwellian-view optical system (1 kW xenon-arc light source).
• 570 nm target (100% contrast; 5 cpd). • 5 second exposure to bleaching photostressor (5° diameter disk; xenon-white light of log 2.5 μW/cm2 intensity). • Threshold: time to recover visibility of target.

[3] = tested on: college baseball players; assay: Glare disability (GL); settings: 20 mg/Z/day for 3-months
Description: as §1, §2
(§3) • 570 nm target (100% contrast, 5 cycles per degree—cpd); 10° inner, 12° outer diameter annulus comprised of broad-band xenon light (see FIG. 1 a). • Threshold: intensity of annulus required to completely veil target.

[4] = tested on: college baseball players; assay: Contrast enhancement (CE); settings: 20 mg/Z/day for 3-months
Description: as §1, §2
(§4) • 600 nm target (100% contrast grating, 5 cpd); 460 nm surround (see FIG. 1A(b)). • Threshold: intensity of background required to obscure edge between target and surround.

[5] = tested on: college baseball players; assay: Fixed and variable position reaction time (FRT/VRT); settings: 20 mg/Z/day for 3-months
Description: as §1
• Task: button press in response to LED repeatedly presented at same position (FRT) or random location (VFT) along the 120 LED linear track. • 60 trials; inter-trial intervals varied between 1000-3000 ms

[6] = tested on: college baseball players; assay: Coincidence anticipation timing (CAT); settings: 20 mg/Z/day for 3-months; at the highest frequency
Description: as §1
• Task: button press to indicate when a light bar (traveling along 120 LED linear track) reached a specified point. • Velocity randomly varied between 5, 10, 15, and 20 MPH (15 trials for each speed, randomly presented; inter-trial intervals randomly varied between 1000-3000 ms).

[7] = tested on: college baseball players; assay: Static and dynamic visual performance after zeaxanthin supplementation (Example 2); settings: 20 mg/d supplementation ongoing; preliminary data
Excerpt: Baseball performance requires the ability to perceive and react to temporally varying stimuli under lighting conditions that are known to be most detrimental to visual function (i.e., short-wave light). Macular pigment (MP) lutein (L) and zeaxanthin (Z) in the retina—is known to improve performance under such conditions and may also improve neural efficiency. The purpose of this study was to assess static and dynamic visual performance in college baseball players in order to: • a) Define performance ability in athletes and non-athletes matched for age and MP (N=18); and, • b) Improve athletes' performance via supplementation.
as §2, §3, §4
• 570 nm target (100% contrast; 5 cpd). • 5 second exposure to bleaching photostressor (5° diameter disk; xenon-white light of log 2.5 μW/cm2 intensity). • Threshold: time to recover visibility of target. […]

## CC1=C(/C=C/C(C)=C/C=C/C(C)=C/C=C/C=C(C)/C=C/C=C(C)/C=C/C2=C(C)C[C@@H](O)CC2(C)C)C(C)(C)C[C@H](O)C1 [Zeaxanthin, zeaxanthin]
[1]; 20 mg/Z/day for 3-months, three subjects completed
  MPOD in supplemented subjects: increased
[1]
  MPOD (Example 2, preliminary data): increases
[1]; listed as zeaxanthin
  MPOD (Example 2, preliminary data): Increases
[1]; one subject, baseline MPOD 0.7 at 30-min of eccentricity, 20 mg/d, 12 weeks
  12-week MPOD: 0.77
[2]
  Photostress recovery time: decreased
[3]
  Glare (disability glare): Early improvements
[4]
  Contrast enhancement: Early improvements
[5]
  FRT: improved
  VRT: improved
[6]
  CAT accuracy: improved
[7]
  Dynamic visual performance: improvement
  Static visual performance: improvement
